One block for each compound: values may come before it. Numbered stars: 1 amine (or outer) side, 2 acyl side, 3 side chain; on linkers, the order of the positions; unused ones are H or OH. Side chains are listed from the residue outwards. Peptide text beside a SMILES is read from it. * marks the point of attachment. X1 = O=C(CCCCCCCCCCCCCCCc1nnn[nH]1)NS(=O)(=O)CCCC(=O)*; C18 diacid = O=C(O)CCCCCCCCCCCCCCCCC(=O)*; γGlu = O=C(O)[C@H](CCC(=O)[*:2])N[*:1]; AEEA = NCCOCCOCC(=O)O
Experiments:
glucagon receptor = molecular target: T1, glucagon receptor (Homo sapiens, UniProt P47871); assay: Assay (I) Glucagon activity (cAMP biosensor, FLIPR); assay type: cell-based
T1 construct: expressed in transfected cells
T1 sequence (P47871 26-477): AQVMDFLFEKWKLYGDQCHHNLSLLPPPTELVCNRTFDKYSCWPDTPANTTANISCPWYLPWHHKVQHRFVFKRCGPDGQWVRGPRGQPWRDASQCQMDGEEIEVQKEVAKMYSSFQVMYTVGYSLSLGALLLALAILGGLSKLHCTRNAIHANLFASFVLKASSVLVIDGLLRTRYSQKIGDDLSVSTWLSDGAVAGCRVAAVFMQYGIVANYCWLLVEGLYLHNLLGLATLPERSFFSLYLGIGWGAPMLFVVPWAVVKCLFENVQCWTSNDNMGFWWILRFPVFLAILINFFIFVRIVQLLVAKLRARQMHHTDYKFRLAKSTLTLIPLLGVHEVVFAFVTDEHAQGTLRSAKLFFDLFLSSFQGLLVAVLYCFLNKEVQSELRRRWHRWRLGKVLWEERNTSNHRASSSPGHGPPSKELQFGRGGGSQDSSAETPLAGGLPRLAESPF

[1] = Assay (X) Chemical stability assessment by RP-UPLC; assay type: physicochemical; settings: pH 8.15, 14 days at 37° C. vs 5° C., 333 μM

Compound: CC(C)C[C@H](NC(=O)[C@H](Cc1ccc(O)cc1)NC(=O)[C@H](CCCCN)NC(=O)[C@H](CO)NC(=O)[C@H](Cc1ccc(O)cc1)NC(=O)[C@H](CC(=O)O)NC(=O)[C@H](CO)NC(=O)[C@@H](NC(=O)[C@H](Cc1ccccc1)NC(=O)[C@@H](NC(=O)CNC(=O)[C@H](CCC(N)=O)NC(=O)[C@H](CO)NC(=O)[C@@H](N)Cc1c[nH]cn1)[C@@H](C)O)[C@@H](C)O)C(=O)N[C@@H](CCC(=O)O)C(=O)N[C@@H](CO)C(=O)N[C@@H](CCCNC(=N)N)C(=O)N[C@@H](CCCNC(=N)N)C(=O)N[C@@H](C)C(=O)N[C@@H](CCC(N)=O)C(=O)N[C@@H](CC(=O)O)C(=O)N[C@@H](Cc1ccccc1)C(=O)N[C@H](C(=O)N[C@@H](CCCCNC(=O)CC[C@H](NC(=O)CC[C@H](NC(=O)COCCOCCNC(=O)CC[C@H](NC(=O)CCCS(=O)(=O)NC(=O)CCCCCCCCCCCCCCCc1nnn[nH]1)C(=O)O)C(=O)O)C(=O)O)C(=O)N[C@@H](Cc1c[nH]c2ccccc12)C(=O)N[C@@H](CC(C)C)C(=O)N[C@@H](CC(C)C)C(=O)N[C@@H](CO)C(=O)N[C@H](C(=O)O)[C@@H](C)O)C(C)C [Example 65, N^ε24-[(4S)-4-carboxy-4-[[(4S)-4-carboxy-4-[[2-[2-[2-[[(4S)-4-carboxy-4-[4-[16-(1H-tetrazol-5-yl)hexadecanoylsulfarnoyl]butanoylamino]butanoyl]amino]ethoxy]ethoxy]acetyl]amino]butanoyl]amino]butanoyl]-[Glu15,Lys24,Leu27,Ser28]-Glucagon] (H-HSQGTFTSDYSKYLESRRAQDFVK([γGlu-γGlu-AEEA-γGlu-X1])WLLST-OH; N-terminus and C-terminus assumed)
EC50 (glucagon receptor): 0.362 nM
Chemical stability [Purity loss/14 days 37 C.] [1]: 7.8%

EC50 (glucagon receptor): 0.231 nM
Chemical stability [Purity loss/14 days 37 C.] [1]: 7.4%
Compound: CC(C)C[C@H](NC(=O)[C@H](CC(=O)O)NC(=O)[C@H](CC(C)C)NC(=O)[C@H](Cc1ccc(O)cc1)NC(=O)[C@H](CCCNC(=N)N)NC(=O)[C@H](CO)NC(=O)[C@H](Cc1ccc(O)cc1)NC(=O)[C@H](CC(=O)O)NC(=O)[C@H](CO)NC(=O)[C@@H](NC(=O)[C@H](Cc1ccccc1)NC(=O)[C@@H](NC(=O)CNC(=O)[C@H](CCC(N)=O)NC(=O)[C@H](CO)NC(=O)[C@@H](N)Cc1c[nH]cn1)[C@@H](C)O)[C@@H](C)O)C(=O)N[C@@H](CCCNC(=N)N)C(=O)N[C@@H](CCCNC(=N)N)C(=O)N[C@@H](C)C(=O)N[C@@H](CCC(N)=O)C(=O)N[C@@H](CC(=O)O)C(=O)N[C@@H](Cc1ccccc1)C(=O)N[C@H](C(=O)N[C@@H](CCCCNC(=O)CC[C@H](NC(=O)CC[C@H](NC(=O)COCCOCCNC(=O)COCCOCCNC(=O)CC[C@H](NC(=O)CCCS(=O)(=O)NC(=O)CCCCCCCCCCCCCCCc1nnn[nH]1)C(=O)O)C(=O)O)C(=O)O)C(=O)N[C@@H](Cc1c[nH]c2ccccc12)C(=O)N[C@@H](CC(C)C)C(=O)N[C@@H](CC(C)C)C(=O)N[C@@H](CO)C(=O)N[C@H](C(=O)O)[C@@H](C)O)C(C)C [Example 67, N^ε24-[(4S)-4-carboxy-4-[[(4S)-4-carboxy-4-[[2-[2-[2-[[2-[2-[2-[[(4S)-4-carboxy-4-[4-[16-(1H-tetrazol-5-yl)hexadecanoylsulfannoyl]butanoylamino]butanoyl]amino]ethoxy]ethoxy]acetyl]amino]ethoxy]ethoxy]acetyl]amino]butanoyl]amino]butanoyl]-[Arg12,Leu16,Lys24,Leu27,Ser28]-Glucagon] (H-HSQGTFTSDYSRYLDLRRAQDFVK([γGlu-γGlu-AEEA-AEEA-γGlu-X1])WLLST-OH)

Compound: CC(C)C[C@H](NC(=O)[C@H](CC(=O)O)NC(=O)[C@H](CC(C)C)NC(=O)[C@H](Cc1ccc(O)cc1)NC(=O)[C@H](CCCNC(=N)N)NC(=O)[C@H](CO)NC(=O)[C@H](Cc1ccc(O)cc1)NC(=O)[C@H](CC(=O)O)NC(=O)[C@H](CO)NC(=O)[C@@H](NC(=O)[C@H](Cc1ccccc1)NC(=O)[C@@H](NC(=O)CNC(=O)[C@H](CCC(N)=O)NC(=O)[C@H](CO)NC(=O)[C@@H](N)Cc1c[nH]cn1)[C@@H](C)O)[C@@H](C)O)C(=O)N[C@@H](CCCNC(=N)N)C(=O)N[C@@H](CCCNC(=N)N)C(=O)N[C@@H](C)C(=O)N[C@@H](CCC(N)=O)C(=O)N[C@@H](CC(=O)O)C(=O)N[C@@H](Cc1ccccc1)C(=O)N[C@H](C(=O)N[C@@H](CCCCNC(=O)CC[C@H](NC(=O)CC[C@H](NC(=O)CC[C@H](NC(=O)COCCOCCNC(=O)COCCOCCNC(=O)CC[C@H](NC(=O)CCCCCCCCCCCCCCCCC(=O)O)C(=O)O)C(=O)O)C(=O)O)C(=O)O)C(=O)N[C@@H](Cc1c[nH]c2ccccc12)C(=O)N[C@@H](CC(C)C)C(=O)N[C@@H](CC(C)C)C(=O)N[C@@H](CO)C(=O)N[C@H](C(=O)O)[C@@H](C)O)C(C)C [Example 45, N^ε24-[(4S)-4-carboxy-4-[[(4S)-4-carboxy-4-[[(4S)-4-carboxy-4-[[2-[2-[2-[[2-[2-[2-[[(4S)-4-carboxy-4-(17-carboxyheptadecanoylamino)butanoyl]amino]ethoxy]ethoxy]acetyl]amino]ethoxy]ethoxy]acetyl]amino]butanoyl]amino]butanoyl]amino]butanoyl]-[Arg12,Leu16,Lys24,Leu27,Ser28]-Glucagon] (H-HSQGTFTSDYSRYLDLRRAQDFVK([γGlu-γGlu-γGlu-AEEA-AEEA-γGlu-C18 diacid])WLLST-OH)
EC50 (glucagon receptor): 0.243 nM
Chemical stability [Purity loss/14 days 37 C.] [1]: 3.3%

Compound: CC(C)C[C@H](NC(=O)[C@H](Cc1c[nH]c2ccccc12)NC(=O)[C@H](CCCCNC(=O)CC[C@H](NC(=O)CC[C@H](NC(=O)COCCOCCNC(=O)COCCOCCNC(=O)CC[C@H](NC(=O)CCCCCCCCCCCCCCCCC(=O)O)C(=O)O)C(=O)O)C(=O)O)NC(=O)[C@@H](NC(=O)[C@H](Cc1ccccc1)NC(=O)[C@H](CC(=O)O)NC(=O)[C@H](CCC(N)=O)NC(=O)[C@H](C)NC(=O)[C@H](CCCNC(=N)N)NC(=O)[C@H](CCCNC(=N)N)NC(=O)[C@@H](NC(=O)[C@H](CC(=O)O)NC(=O)[C@H](CC(C)C)NC(=O)[C@H](Cc1ccc(O)cc1)NC(=O)[C@H](CCCCN)NC(=O)[C@H](CO)NC(=O)[C@H](Cc1ccc(O)cc1)NC(=O)[C@H](CC(=O)O)NC(=O)[C@H](CO)NC(=O)[C@@H](NC(=O)[C@H](Cc1ccccc1)NC(=O)[C@@H](NC(=O)CNC(=O)[C@H](CCC(N)=O)NC(=O)[C@H](CO)NC(=O)[C@@H](N)Cc1c[nH]cn1)[C@@H](C)O)[C@@H](C)O)[C@@H](C)O)C(C)C)C(=O)N[C@@H](CC(C)C)C(=O)N[C@@H](CO)C(=O)N[C@H](C(=O)O)[C@@H](C)O [Example 12, N^ε24-[(4S)-4-carboxy-4-[[(4S)-4-carboxy-4-[[2-[2-[2-[[2-[2-[2-[[(4S)-4-carboxy-4-(17-carboxyheptadecanoylamino)butanoyl]amino]ethoxy]ethoxy]acetyl]amino]ethoxy]ethoxy]acetyl]amino]butanoyl]amino]butanoyl]-[Thr^16,Lys^24,Leu^27,Ser^28]-Glucagon]
EC50 (glucagon receptor): 0.075 nM
Chemical stability [Purity loss/14 days 37 C.] [1]: 7.0%

Compound: CC[C@H](C)[C@H](NC(=O)[C@H](CC(=O)O)NC(=O)[C@H](CC(C)C)NC(=O)[C@H](Cc1ccc(O)cc1)NC(=O)[C@H](CCCCN)NC(=O)[C@H](CO)NC(=O)[C@H](Cc1ccc(O)cc1)NC(=O)[C@H](CC(=O)O)NC(=O)[C@H](CO)NC(=O)[C@@H](NC(=O)[C@H](Cc1ccccc1)NC(=O)[C@@H](NC(=O)CNC(=O)[C@H](CCC(N)=O)NC(=O)[C@H](CO)NC(=O)[C@@H](N)Cc1c[nH]cn1)[C@@H](C)O)[C@@H](C)O)C(=O)N[C@@H](CCCNC(=N)N)C(=O)N[C@@H](CCCNC(=N)N)C(=O)N[C@@H](C)C(=O)N[C@@H](CCC(N)=O)C(=O)N[C@@H](CC(=O)O)C(=O)N[C@@H](Cc1ccccc1)C(=O)N[C@H](C(=O)N[C@@H](CCCCNC(=O)CC[C@H](NC(=O)CC[C@H](NC(=O)COCCOCCNC(=O)COCCOCCNC(=O)CC[C@H](NC(=O)CCCCCCCCCCCCCCCCC(=O)O)C(=O)O)C(=O)O)C(=O)O)C(=O)N[C@@H](Cc1c[nH]c2ccccc12)C(=O)N[C@@H](CC(C)C)C(=O)N[C@@H](CC(C)C)C(=O)N[C@@H](CO)C(=O)N[C@H](C(=O)O)[C@@H](C)O)C(C)C [Example 11, N^ε24-[(4S)-4-carboxy-4-[[(4S)-4-carboxy-4-[[2-[2-[2-[[2-[2-[2-[[(4S)-4-carboxy-4-(17-carboxyheptadecanoylamino)butanoyl]amino]ethoxy]ethoxy]acetyl]amino]ethoxy]ethoxy]acetyl]amino]butanoyl]amino]butanoyl]-[Ile^16,Lys^24,Leu^27,Ser^28]-Glucagon]
EC50 (glucagon receptor): 0.084 nM
Chemical stability [Purity loss/14 days 37 C.] [1]: 6.2%

Compound: CC(C)C[C@H](NC(=O)[C@H](Cc1c[nH]c2ccccc12)NC(=O)[C@H](CCCCNC(=O)CC[C@H](NC(=O)CC[C@H](NC(=O)CC[C@H](NC(=O)CC[C@H](NC(=O)CCCCCCCCCCCCCCCCC(=O)O)C(=O)O)C(=O)O)C(=O)O)C(=O)O)NC(=O)[C@@H](NC(=O)[C@H](Cc1ccccc1)NC(=O)[C@H](CC(=O)O)NC(=O)[C@H](CCC(N)=O)NC(=O)[C@H](C)NC(=O)[C@H](CCCNC(=N)N)NC(=O)[C@H](CCCNC(=N)N)NC(=O)[C@@H](NC(=O)[C@H](CC(=O)O)NC(=O)[C@H](CC(C)C)NC(=O)[C@H](Cc1ccc(O)cc1)NC(=O)[C@H](CCCCN)NC(=O)[C@H](CO)NC(=O)[C@H](Cc1ccc(O)cc1)NC(=O)[C@H](CC(=O)O)NC(=O)[C@H](CO)NC(=O)[C@@H](NC(=O)[C@H](Cc1ccccc1)NC(=O)[C@@H](NC(=O)CNC(=O)[C@H](CCC(N)=O)NC(=O)[C@H](CO)NC(=O)[C@@H](N)Cc1c[nH]cn1)[C@@H](C)O)[C@@H](C)O)C(C)C)C(C)C)C(=O)N[C@@H](CC(C)C)C(=O)N[C@@H](CO)C(=O)N[C@H](C(N)=O)[C@@H](C)O [Example 76, N^ε24-[(4S)-4-carboxy-4-[[(4S)-4-carboxy-4-[[(4S)-4-carboxy-4-[[(4S)-4-carboxy-4-(17-carboxyheptadecanoylamino)butanoyl]amino]butanoyl]amino]butanoyl]amino]butanoyl]-[Val16,Lys24,Leu27,Ser28]-Glucagon amide]
EC50 (glucagon receptor): 0.268 nM
Chemical stability [Purity loss/14 days 37 C.] [1]: 5.5%
